By Ki is commonly meant the equilibrium dissociation constant of an inhibitor or competing ligand from its target.

The record followed here is ChEMBL document CHEMBL1177725, “6-(3,4-dichlorophenyl)-1-[(methyloxy)methyl]-3-azabicyclo[4.1.0]heptane: a new potent and selective triple reuptake inhibitor” (J Med Chem, 2010).

Common to all, as to assay type: cell-based
Test [1] addresses Sodium-dependent dopamine transporter (Homo sapiens, UniProt Q01959). Nature of the test: Displacement of [N-methyl-3H]WIN-35428 from human recombinant DAT expressed in pig LLCPK cells after 2 hrs by liquid scintillation counting.
Test [2] addresses Sodium-dependent noradrenaline transporter (Homo sapiens, UniProt P23975). Nature of the test: Displacement of [N-methyl-3H]nisoxetine from human recombinant NET expressed in pig LLCPK cells after 2 hrs by liquid scintillation counting.
For test [3], the target named is Sodium-dependent serotonin transporter (Homo sapiens, UniProt P31645). Put plainly: Displacement of [N-methyl-3H]citalopram from human recombinant SERT expressed in pig LLCPK cells after 2 hrs by liquid scintillation counting.
Sodium-dependent serotonin transporter, sequence (P31645 whole entry): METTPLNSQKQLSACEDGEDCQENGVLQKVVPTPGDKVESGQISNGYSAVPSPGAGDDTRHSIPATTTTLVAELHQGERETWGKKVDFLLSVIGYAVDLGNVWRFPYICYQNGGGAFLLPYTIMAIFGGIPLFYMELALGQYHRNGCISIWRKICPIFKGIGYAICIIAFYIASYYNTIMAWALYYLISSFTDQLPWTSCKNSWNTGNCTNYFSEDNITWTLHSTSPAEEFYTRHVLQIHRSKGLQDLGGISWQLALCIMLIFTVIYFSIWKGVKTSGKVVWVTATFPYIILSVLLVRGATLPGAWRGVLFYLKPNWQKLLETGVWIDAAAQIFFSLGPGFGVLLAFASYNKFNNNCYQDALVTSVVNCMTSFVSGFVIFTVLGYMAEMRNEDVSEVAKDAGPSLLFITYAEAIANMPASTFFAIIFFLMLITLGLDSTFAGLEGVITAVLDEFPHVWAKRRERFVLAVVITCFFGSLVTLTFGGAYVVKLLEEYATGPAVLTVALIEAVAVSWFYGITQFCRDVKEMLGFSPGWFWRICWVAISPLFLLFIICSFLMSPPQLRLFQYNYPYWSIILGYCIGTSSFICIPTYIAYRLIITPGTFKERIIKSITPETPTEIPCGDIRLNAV

Sodium-dependent noradrenaline transporter, sequence (P23975 whole entry): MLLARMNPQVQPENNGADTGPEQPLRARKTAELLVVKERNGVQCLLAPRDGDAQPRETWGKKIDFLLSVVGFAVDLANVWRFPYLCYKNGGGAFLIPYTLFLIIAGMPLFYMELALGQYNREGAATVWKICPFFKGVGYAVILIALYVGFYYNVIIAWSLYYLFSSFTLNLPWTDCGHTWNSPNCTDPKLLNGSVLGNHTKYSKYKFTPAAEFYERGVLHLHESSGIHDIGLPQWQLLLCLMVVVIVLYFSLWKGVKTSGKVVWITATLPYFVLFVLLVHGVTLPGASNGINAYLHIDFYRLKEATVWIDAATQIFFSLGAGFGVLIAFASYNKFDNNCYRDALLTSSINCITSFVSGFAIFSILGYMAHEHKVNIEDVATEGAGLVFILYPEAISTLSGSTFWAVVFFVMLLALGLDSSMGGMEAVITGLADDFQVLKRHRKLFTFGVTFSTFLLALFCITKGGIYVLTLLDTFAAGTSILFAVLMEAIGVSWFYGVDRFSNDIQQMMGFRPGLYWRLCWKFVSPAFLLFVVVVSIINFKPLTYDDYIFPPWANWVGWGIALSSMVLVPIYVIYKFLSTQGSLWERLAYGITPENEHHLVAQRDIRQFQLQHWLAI
Sodium-dependent dopamine transporter, sequence (Q01959 whole entry): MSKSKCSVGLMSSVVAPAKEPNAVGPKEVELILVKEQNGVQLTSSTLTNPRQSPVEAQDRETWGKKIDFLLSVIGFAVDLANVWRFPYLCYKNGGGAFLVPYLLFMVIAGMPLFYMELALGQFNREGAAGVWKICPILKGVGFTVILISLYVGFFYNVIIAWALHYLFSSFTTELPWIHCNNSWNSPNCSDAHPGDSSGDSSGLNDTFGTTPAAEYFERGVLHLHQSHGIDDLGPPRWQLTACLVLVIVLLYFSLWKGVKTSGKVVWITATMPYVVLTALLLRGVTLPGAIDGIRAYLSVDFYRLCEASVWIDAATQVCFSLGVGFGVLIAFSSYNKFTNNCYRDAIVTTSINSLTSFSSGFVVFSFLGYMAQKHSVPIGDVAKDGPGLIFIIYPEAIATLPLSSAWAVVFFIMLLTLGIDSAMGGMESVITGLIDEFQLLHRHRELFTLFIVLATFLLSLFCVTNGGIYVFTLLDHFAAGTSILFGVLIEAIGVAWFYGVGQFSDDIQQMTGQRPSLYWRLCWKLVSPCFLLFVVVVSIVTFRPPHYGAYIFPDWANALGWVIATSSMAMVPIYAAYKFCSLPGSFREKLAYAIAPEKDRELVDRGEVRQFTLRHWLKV

Consider `OC[C@@]12CNCC[C@]1(c1ccc(Cl)c(Cl)c1)C2` (relative stereo; 15) [RAC-1-(3,4-DICHLOROPHENYL)-3-AZABICYCLO[4.1.0]HEPTAN-6-YL)METHANOL (STRUCTURAL MIX)], for which the Ki in test [1] is 79.4 nM; in test [2] it was 100 nM; in test [3], 7.94 nM.

With `Clc1ccc([C@@]23CCNC[C@@H]2C3)cc1Cl` (single isomer, unassigned) [RAC-1-(3,4-DICHLO ROPHENYL)-3-AZABICYCLO[4.1.0]HEPTANE (ENANTIOMERS)], the results for the Ki in test [1], in test [2] and in test [3] were 25.1 nM, 100 nM and 12.6 nM, respectively.

In the case of `CCOC[C@@]12CNCC[C@]1(c1ccc(Cl)c(Cl)c1)C2` (racemic) [6-(3,4-DICHLOROPHENYL)-1-[(ETHYLOXY)METHYL]-3-AZABICYCLO[4.1.0]-HEPTANE (ENANTIOMERIC MIX)], the Ki in test [1] is 6.31 nM; in test [2], 10 nM; in test [3], 1.26 nM.

In the case of `COC[C@@]12CNCC[C@]1(c1ccc(OC(F)(F)F)cc1)C2` (racemic), the Ki was 7940 nM in test [1], 3160 nM in test [2] and 3.16 nM in test [3].

`COC[C@@]12CNCC[C@]1(c1ccc3ccccc3c1)C2` (racemic) [1-(METHOXYMETHYL)-6-(NAPHTHALEN-2-YL)-3-AZABICYCLO[4.1.0]HEPTANE (ENANTIOMERIC MIX)]: the Ki in test [1] was 31.6 nM; in test [2] it was 12.6 nM; in test [3], 0.316 nM.

Turning to `OC[C@@]12CNCC[C@]1(c1ccc(Cl)c(Cl)c1)C2` (relative stereo; 14) [RAC-1-(3,4-DICHLOROPHENYL)-3-AZABICYCLO[4.1.0]HEPTAN-6-YL)METHANOL (STRUCTURAL MIX)], the Ki in test [1] was 100 nM; in test [2], 398 nM; in test [3], 39.8 nM.

Regarding `C=CCC(OC)[C@]12CNCC[C@]1(c1ccc(Cl)c(Cl)c1)C2` (mixture of isomers; form 2) [6-(3,4-DICHLOROPHENYL)-1-[1-(METHYLOXY)-3-BUTEN-1-YL]-3-AZABICYCLO[4.1.0]HEPTANE (DIASTEREOMERIC MIX)], the results for the Ki in test [1], in test [2] and in test [3] were 1.58 nM, 3.98 nM and 1.26 nM, respectively.

Consider `COC[C@@]12CNCC[C@]1(c1ccc(Cl)c(C(F)(F)F)c1)C2` (racemic), for which the inhibition constant Ki in test [1] is 3160 nM; in test [2] it was 200 nM; in test [3], 15.8 nM.

As to `COC[C@@]12CN(C(C)C)CC[C@]1(c1ccc(Cl)c(Cl)c1)C2`, the figures for the Ki in test [1], in test [2] and in test [3] were 1260 nM, 5010 nM and 631 nM, respectively.

Consider `Clc1ccc([C@]23CCNC[C@@]2(COCC2CC2)C3)cc1Cl` (relative stereo; 34) [1-((CYCLOPROPYLMETHOXY)METHYL)-6-(3,4-DICHLOROPHENYL)-3-AZABICYCLO[4.1.0]HEPTANE (ENANTIOMERIC MIX)], for which the Ki was 3.16 nM in test [1], 20 nM in test [2] and 0.398 nM in test [3].

For `COC[C@@]12CNCC[C@]1(c1ccc3ccccc3c1)C2` (single isomer, unassigned; 27) [1-(METHOXYMETHYL)-6-(NAPHTHALEN-2-YL)-3-AZABICYCLO[4.1.0]HEPTANE (ENANTIOMERIC MIX)], the Ki in test [1] was 100 nM; in test [2], 39.8 nM; in test [3] it was 1 nM.

On to `CC(=O)[C@@]12CNCC[C@]1(c1ccc(Cl)c(Cl)c1)C2` (relative stereo), for which the Ki in test [1] was 3.98 nM; in test [2] it was 15.8 nM; in test [3], 1 nM.

Consider `Clc1ccc([C@@]23CCNC[C@@H]2C3)cc1Cl` (racemic) [RAC-1-(3,4-DICHLO ROPHENYL)-3-AZABICYCLO[4.1.0]HEPTANE (ENANTIOMERS)], for which the Ki in test [1] was 50.1 nM; in test [2] it was 251 nM; in test [3], 25.1 nM.

As for `COC[C@@]12CCNC[C@]1(c1ccc(Cl)c(Cl)c1)C2` (relative stereo) [RAC-1-(3,4-DICHLOROPHENYL)-6-(METHOXYMETHYL)-2-AZABICYCLO[4.1.0]HEPTANE (ENANTIOMERS)], the Ki was 63.1 nM in test [1], 100 nM in test [2] and 12.6 nM in test [3].

`COC[C@@]12CNC[C@H](F)[C@]1(c1ccc(Cl)c(Cl)c1)C2` (racemic): the Ki was 100 nM in test [1], 100 nM in test [2] and 5.01 nM in test [3].

For the molecule `OC[C@@]12CNCC[C@]1(c1ccc(Cl)c(Cl)c1)C2` (racemic) [RAC-1-(3,4-DICHLOROPHENYL)-3-AZABICYCLO[4.1.0]HEPTAN-6-YL)METHANOL (STRUCTURAL MIX)], the Ki is 200 nM in test [1], 158 nM in test [2] and 20 nM in test [3].

For the molecule `Clc1ccc([C@]23CCN4CC[C@]2(C4)C3)cc1Cl` (single isomer, unassigned; 50) [3-(3,4-DICHLORO-PHENYL)-6-AZA-TRICYCLO[4.2.1.0*1,3*]NONANE (STRUCTURAL MIX)], the Ki in test [1] is 251 nM; in test [2], 794 nM; in test [3], 31.6 nM.

Regarding `COC[C@H]1[C@@H]2CNCC[C@@]21c1ccc(Cl)c(Cl)c1` (racemic), the Ki is 1260 nM in test [1], 2000 nM in test [2] and 50.1 nM in test [3].

With `COC[C@@]12CNCC[C@]1(c1ccc(F)c(Cl)c1)C2` (racemic), the results for the Ki in test [1], in test [2] and in test [3] were 158 nM, 316 nM and 1.58 nM, respectively.

As for `CCOC(=O)[C@@]12CNCC[C@]1(c1ccc(Cl)c(Cl)c1)C2` (racemic), the Ki in test [1] is 5.01 nM; in test [2], 7.94 nM; in test [3], 15.8 nM.

As to `COC[C@@]12CN[C@@H](C)C[C@]1(c1ccc(Cl)c(Cl)c1)C2` (racemic), the Ki in test [1] was 39.8 nM; in test [2] it was 50.1 nM; in test [3] it was 7.94 nM.

For the molecule `CCOC[C@@]12CNCC[C@]1(c1ccc(Cl)c(Cl)c1)C2` (relative stereo; 30) [6-(3,4-DICHLOROPHENYL)-1-[(ETHYLOXY)METHYL]-3-AZABICYCLO[4.1.0]-HEPTANE (ENANTIOMERIC MIX)], the Ki was 63.1 nM in test [1], 100 nM in test [2] and 10 nM in test [3].

In the case of `Clc1ccc([C@@H]2CCNC[C@@]23CCCOC3)cc1Cl`, the Ki was 12.6 nM in test [1], 3.98 nM in test [2] and 0.316 nM in test [3].

`Clc1ccc([C@]23CCNC[C@@]2(COCC2CC2)C3)cc1Cl` (relative stereo; 35) [1-((CYCLOPROPYLMETHOXY)METHYL)-6-(3,4-DICHLOROPHENYL)-3-AZABICYCLO[4.1.0]HEPTANE (ENANTIOMERIC MIX)]: the Ki in test [1] is 63.1 nM; in test [2] it was 126 nM; in test [3], 3.98 nM.

`Clc1ccc([C@@]23CCNC[C@@H]2C3)cc1Cl` (relative stereo) [RAC-1-(3,4-DICHLO ROPHENYL)-3-AZABICYCLO[4.1.0]HEPTANE (ENANTIOMERS)]: the figures for the Ki in test [1], in test [2] and in test [3] were 50.1 nM, 251 nM and 39.8 nM, respectively.

For `COC[C@@]12CNC[C@@H](F)[C@]1(c1ccc(Cl)c(Cl)c1)C2` (racemic), the results for the inhibitory constant (Ki) in test [1], in test [2] and in test [3] were 100 nM, 50.1 nM and 3.98 nM, respectively.

Turning to `COC[C@@H]1[C@@H]2CCNC[C@]12c1ccc(Cl)c(Cl)c1` (racemic), the figures for the Ki in test [1], in test [2] and in test [3] were 126 nM, 63.1 nM and 31.6 nM, respectively.
